Test results: the supplement of paper PMC6045584
± gives the standard deviation of the averaged measurements.

Tests used:
RESVERATROL = compound: Oc1ccc(/C=C/c2cc(O)cc(O)c2)cc1 [RESVERATROL]; assay: surviving fraction relative to DMSO-only wells; higher = less growth inhibition; settings: exposure time: 5 days
Outline: (§1)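 Continuous five-day exposure to inhibitors at 0.5, 1, 5, 10, 50, 100, 500 and 1000 nM started 24 hours after log-phase tumour cell lines were seeded at 250–500 cells per well in 384-well plates. Luminescence was read after 10 minutes at room temperature. Viability is given as surviving fraction, meaning CellTiter-Glo luminescence normalised to the median of DMSO-only wells.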

17-AAG = compound: C=CCNC1=C2C[C@@H](C)C[C@H](OC)[C@H](O)[C@@H](C)/C=C(\C)[C@H](OC(N)=O)[C@@H](OC)/C=C\C=C(/C)C(=O)NC(=CC1=O)C2=O [17-AAG]; assay: as above; settings: exposure time: 5 days
Outline: as §1

Test System	surviving fraction (RESVERATROL; 0.5 nM)	surviving fraction (RESVERATROL; 1 nM)	surviving fraction (RESVERATROL; 5 nM)	surviving fraction (RESVERATROL; 10 nM)	surviving fraction (RESVERATROL; 50 nM)	surviving fraction (RESVERATROL; 100 nM)	surviving fraction (RESVERATROL; 500 nM)	surviving fraction (RESVERATROL; 1000 nM)	surviving fraction (17-AAG; 0.5 nM)	surviving fraction (17-AAG; 1 nM)	surviving fraction (17-AAG; 5 nM)	surviving fraction (17-AAG; 10 nM)	surviving fraction (17-AAG; 50 nM)	surviving fraction (17-AAG; 100 nM)	surviving fraction (17-AAG; 500 nM)	surviving fraction (17-AAG; 1000 nM)
HUO3N1 BONE	1.01 ± 0.036	1.07 ± 0.037	1.04 ± 0.034	1.06 ± 0.06	1.09 ± 0.035	1.1 ± 0.037	1.07 ± 0.029	1.01 ± 0.067	0.881 ± 0.025	0.888 ± 0.042	0.97 ± 0.022	0.872 ± 0.046	0.591 ± 0.046	0.443 ± 0.025	0.359 ± 0.026	0.316 ± 0.036
JIMT1 BREAST	1.03 ± 0.038	1.04 ± 0.042	1.05 ± 0.047	1.01 ± 0.029	1.01 ± 0.016	1.05 ± 0.027	1 ± 0.035	1.05 ± 0.021	0.833 ± 0.034	0.823 ± 0.062	0.84 ± 0.046	0.754 ± 0.1	0.0973 ± 0.016	0.0685 ± 0.0066	0.062 ± 0.0026	0.0647 ± 0.0033
JURKAT HAEMATOPOIETIC AND LYMPHOID TISSUE	1.022 ± 0.0052	1.04 ± 0.022	1.02 ± 0.011	1.04 ± 0.033	0.985 ± 0.018	0.953 ± 0.011	1.02 ± 0.029	1.04 ± 0.039	1.02 ± 0.014	0.997 ± 0.037	1 ± 0.023	0.998 ± 0.014	0.951 ± 0.032	0.886 ± 0.021	0.132 ± 0.0082	0.0577 ± 0.0015
KPD BONE	0.997 ± 0.054	1.03 ± 0.032	1.08 ± 0.04	1.09 ± 0.063	1.02 ± 0.017	1.08 ± 0.041	0.969 ± 0.044	1.05 ± 0.028	0.907 ± 0.085	0.894 ± 0.05	0.913 ± 0.01	0.828 ± 0.084	0.246 ± 0.018	0.111 ± 0.011	0.0627 ± 0.0015	0.0607 ± 0.0045
LM7 BONE	1.05 ± 0.036	1.05 ± 0.025	1.1 ± 0.045	1.18 ± 0.061	1.07 ± 0.067	1.15 ± 0.054	1.04 ± 0.034	1.12 ± 0.048	0.755 ± 0.098	0.728 ± 0.03	0.763 ± 0.026	0.722 ± 0.01	0.188 ± 0.0075	0.121 ± 0.0085	0.0937 ± 0.0021	0.0923 ± 0.0068
LNCAP PROSTATE	0.912 ± 0.051	0.987 ± 0.098	0.897 ± 0.11	0.775 ± 0.12	1.04 ± 0.16	0.919 ± 0.11	0.914 ± 0.08	0.956 ± 0.18	1.15 ± 0.1	1.14 ± 0.025	0.769 ± 0.12	0.359 ± 0.028	0.114 ± 0.009	0.0687 ± 0.012	0.0517 ± 0.0021	0.0523 ± 0.0064
MCF7 BREAST	0.91 ± 0.027	1.01 ± 0.074	0.927 ± 0.068	0.947 ± 0.03	0.951 ± 0.063	0.99 ± 0.016	1 ± 0.077	1.04 ± 0.031	0.842 ± 0.015	0.817 ± 0.027	0.811 ± 0.021	0.777 ± 0.058	0.429 ± 0.0029	0.329 ± 0.0083	0.271 ± 0.015	0.275 ± 0.012
MDAMB134 BREAST	0.894 ± 0.15	1.02 ± 0.045	0.864 ± 0.11	0.811 ± 0.016	1.06 ± 0.14	1.04 ± 0.15	1.057 ± 0.0028	1.08 ± 0.048	0.609 ± 0.036	0.648 ± 0.053	0.573 ± 0.066	0.667 ± 0.051	0.574 ± 0.018	0.519 ± 0.011	0.524 ± 0.012	0.47 ± 0.018
MDAMB157 BREAST	1.01 ± 0.061	1.06 ± 0.048	0.972 ± 0.057	1.1 ± 0.038	0.992 ± 0.025	1.07 ± 0.03	0.972 ± 0.095	1 ± 0.1	0.897 ± 0.082	0.854 ± 0.053	0.848 ± 0.18	0.482 ± 0.098	0.233 ± 0.018	0.214 ± 0.038	0.163 ± 0.024	0.147 ± 0.008
MDAMB231 BREAST	0.97 ± 0.01	0.996 ± 0.013	0.9638 ± 0.0043	0.993 ± 0.016	0.9694 ± 0.0024	0.998 ± 0.012	0.993 ± 0.012	1.03 ± 0.053	0.95 ± 0.019	0.943 ± 0.03	0.994 ± 0.033	1.01 ± 0.022	0.534 ± 0.019	0.263 ± 0.0075	0.103 ± 0.0031	0.0973 ± 0.0038
MDAMB361 BREAST	0.839 ± 0.071	0.871 ± 0.11	0.894 ± 0.089	0.898 ± 0.079	0.948 ± 0.012	0.884 ± 0.021	0.949 ± 0.082	0.952 ± 0.17	0.765 ± 0.078	0.728 ± 0.036	0.454 ± 0.036	0.332 ± 0.047	0.278 ± 0.023	0.267 ± 0.015	0.324 ± 0.014	0.313 ± 0.038
